Among the data in ChEMBL document CHEMBL1150888, “Dragmacidins: new protein phosphatase inhibitors from a southern australian deep-water marine sponge, spongosorites sp” (1998) are MIC and Activity values, retold here.

Values after ≈ are worked out from the molar mass of the structure shown. Active and inactive are the calls of the source.

As a reminder, the MIC is the smallest concentration in the dilution series that meets the test's criterion for growth inhibition.

One experiment deals with Escherichia coli. Kind of experiment: Antibacterial activity against Escherichia coli. It counts as functional.
Experiment [1] in a line: Inhibition of PP1.
In another experiment the test system is Candida albicans. The experiment in a line: Antifungal activity against Candida albicans. Format: functional.
Experiment [2] is described as follows: Inhibition of PP2A.

Take `CC(C1=CNC(N)N1)c1ccc(O)c2[nH]cc(-c3cnc(-c4c[nH]c5cc(Br)ccc45)c(=O)[nH]3)c12` (configuration not stated) [DRAGMACIDIN D]: the results for the MIC against Escherichia coli and in the experiment on Candida albicans were 16 µg/mL (≈ 30.1 µM) and 20 µg/mL (≈ 37.6 µM), respectively. The outcome in experiment [1] was Active.

Turning to `C[C@@H]1c2ccc(O)c3[nH]cc(c23)-c2[nH]c(=O)c(-c3c[nH]c4cc(Br)ccc34)nc2[C@@]12CNC(N)=N2` [DRAGMACIDIN E], the MIC against Escherichia coli turned out to be 22 µg/mL (≈ 41.5 µM); against Candida albicans, 36 µg/mL (≈ 67.9 µM). The result in experiment [1] and in experiment [2] was Active.
